Measured values published in PubChem BioAssay AID540349 (The Scripps Research Institute Molecular Screening Center, 2011).
Calls of active or inactive are those of the source. No rule for the calls is given here.

Target: Sphingosine 1-phosphate receptor 3 (Homo sapiens) (UniProt Q99500)
Experiment: S1P3 receptor agonists, SAR follow-up, cell-based, fluorescence, synthesized compounds (AID 540349)
Details: S1P3-expressing cells, agonist fluorescence read-out

Sphingosine 1-phosphate receptor 3 (Homo sapiens), sequence (Q99500 whole entry, looked up): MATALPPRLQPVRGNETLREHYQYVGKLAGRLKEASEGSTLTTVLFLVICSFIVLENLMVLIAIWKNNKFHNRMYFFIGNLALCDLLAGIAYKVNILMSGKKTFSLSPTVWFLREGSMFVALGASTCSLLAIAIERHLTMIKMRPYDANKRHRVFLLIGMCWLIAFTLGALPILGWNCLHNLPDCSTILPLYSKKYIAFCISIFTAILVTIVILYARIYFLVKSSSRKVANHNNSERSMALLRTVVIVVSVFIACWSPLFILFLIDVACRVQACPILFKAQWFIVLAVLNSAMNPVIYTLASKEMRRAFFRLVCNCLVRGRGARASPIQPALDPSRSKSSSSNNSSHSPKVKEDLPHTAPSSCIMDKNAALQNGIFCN

| SMILES | EC50 (run 1) | EC50 (run 2) | EC50 (run 3) |
| --- | --- | --- | --- |
| CC1CCCCC1N(C(=O)c1cc(C2CC2)on1)C1CCCCC1C (configuration not stated) | 0.28 µM | 0.126 µM | 0.2 µM |
| CC(C)c1cc(C(=O)N(C2CCCCC2)C2CCCCC2)no1 | 1.41 µM | 0.799 µM | 0.668 µM |
| O=C(c1cc(C2CC2)on1)N(Cc1ccccc1)c1ccccn1 | 6.89 µM | 7.54 µM | 5.23 µM |
| CC1CCCCC1N(C(=O)c1cc(C2CC2)on1)C1CCOCC1 (configuration not stated) | > 10 µM (inactive) | 2.23 µM | 3.41 µM |
| COc1ccc(N(Cc2ccccc2)C(=O)c2cc(C3CC3)on2)cc1 | > 10 µM (inactive) | inactive | inactive |
| CC(C)Cc1cc(C(=O)N(C2CCCCC2)C2CCCCC2)no1 | 2.08 µM | 0.785 µM | 1.26 µM |
| O=C(c1cc(-c2ccccc2)on1)N(C1CCCCC1)C1CCCCC1 | 0.216 µM | 0.0352 µM | 0.0589 µM |
| CCN(CC)C(=O)c1cc(C2CC2)on1 | > 10 µM (inactive) | > 50 µM (inactive) | > 50 µM (inactive) |
| O=C(c1ccc(C2CC2)o1)N(C1CCCCC1)C1CCCCC1 | > 10 µM (inactive) | > 50 µM (inactive) | > 50 µM (inactive) |
| O=C(c1coc(C2CC2)n1)N(C1CCCCC1)C1CCCCC1 | > 10 µM (inactive) | > 50 µM (inactive) | > 50 µM (inactive) |
| COc1ccc(-c2cc(C(=O)N(C3CCCCC3)C3CCCCC3)no2)cc1 | 0.583 µM | 0.173 µM | 0.212 µM |
| COc1ccc(-c2cc(C(=O)N(C3CCCCC3)C3CCCCC3)no2)cc1OC | > 10 µM (inactive) | > 50 µM (inactive) | > 50 µM (inactive) |
| O=C(c1cc(C2CC2)on1)N(Cc1ccccc1)c1ccccc1 | 7.62 µM | 8.13 µM | 5.25 µM |
| CCOc1ccc(-c2nc(C(=O)N(C3CCCCC3)C3CCCCC3)co2)cc1OCC | > 10 µM (inactive) | 8.01 µM | 8.13 µM |
| O=C(c1noc2ccccc12)N(C1CCCCC1)C1CCCCC1 | > 10 µM (inactive) | > 50 µM (inactive) | > 50 µM (inactive) |
| CCCc1cc(C(=O)N(C2CCCCC2)C2CCCCC2)no1 | 0.495 µM | 0.335 µM | 0.471 µM |
| O=C(c1cc(C2CC2)on1)N(Cc1ccccc1)Cc1ccccc1 | > 10 µM (inactive) | > 50 µM (inactive) | > 50 µM (inactive) |
| CCCc1cc(C(=O)N(C2CCCCC2)C2CCCC2)no1 | > 10 µM (inactive) | inactive | 5.67 µM |
| O=C(c1cc(-c2ccccc2)on1)N(C1CCCCC1)C1CCCC1 | 1.55 µM | 0.519 µM | 0.472 µM |

Continued, values first:

| EC50 (run 1) | EC50 (run 2) | EC50 (run 3) | SMILES |
| --- | --- | --- | --- |
| 0.349 µM | 0.326 µM | 0.337 µM | CC1CCCCC1N(C(=O)c1cc(C2CC2)on1)C1CCCCC1 (configuration not stated) |
| > 10 µM (inactive) | > 50 µM (inactive) | > 50 µM (inactive) | O=C(NC1CCCCC1)c1cc(C2CC2)on1 |
| > 10 µM (inactive) | > 50 µM (inactive) | > 50 µM (inactive) | CCCc1cc(C(=O)NC2CCCCC2)no1 |
| 0.0723 µM | 0.132 µM | 0.112 µM | O=C(c1cc(C2CC2)on1)N(C1CCCCC1)C1CCCCC1 |
| 2.61 µM | 1.08 µM | 1.53 µM | CC1CCCCC1N(C(=O)c1cc(C2CC2)on1)C1CCCC1 (configuration not stated) |
| 0.842 µM | 0.285 µM | 0.478 µM | CC1CCCCC1N(C(=O)c1cc(C2CC2)on1)C1CCCCCC1 (configuration not stated) |
| 6.4 µM | 2.16 µM | 1.73 µM | O=C(c1cc(C2CC2)on1)N(CC1CCCCC1)C1CCCCC1 |
| 3.83 µM | 3.73 µM | 3.05 µM | O=C(c1cc(C2CC2)on1)N(C1CCCCC1)C1CCOCC1 |
| 2.77 µM | 1.22 µM | 1.06 µM | O=C(c1cc(C2CC2)on1)N(C1CCCCC1)C1CCCC1 |
| 3.91 µM | 2.39 µM | 1.96 µM | O=C(c1cc(C2CC2)on1)N(C1CCCCCC1)C1CCCC1 |
